Reference: US20190083462A1, “PREVENTION OF NSAID ENTEROPATHY WITH MICROBIOTA-DERIVED TRYPTOPHAN-METABOLITE” (THE TEXAS A&M UNIVERSITY SYSTEM, priority 2016, published 2019)

Test system: fecal microbiota
Assay: Inferred metagenome of the fecal microbiota (PICRUSt, SIMPER)
Type: in vivo, mice
Conditions: for mean % abundance: day 7 feces
Procedure: Eight- to 10-week-old specific-pathogen-free C57BL/6J mice were purchased and allowed to acclimate for 2 weeks. Mice were fed standardized laboratory rodent diet and sterile water ad libitum. […] Mice were then rehoused on the basis of treatment group assignment, with 5 animals/group-cage. To induce NSAID enteropathy, mice in group 1 were gavaged once daily with indomethacin (5 mg/kg; for 7 days; Sigma Aldrich, St. Louis, Mo.) dissolved in dimethylysulfoxide (DMSO) (Sigma Aldrich, St. Louis, Mo.) and further diluted in phosphate buffered saline (PBS). […] Sigma Aldrich, St. Louis, Mo.) dissolved in sterile water warmed to 55° C. […] All mice were gavaged with equal volumes (200 μL) and equal concentrations of DMSO (0.001%). Feces were collected daily by placing individual animals in sterile plastic cups that were RNase- and DNase-free until they passed feces. The mice were immediately returned to their home cages and the feces immediately flash frozen at -80° C. All animals were euthanized via CO2 asphyxiation on day 8 (i.e., after 7 days of treatment). […] Life Technologies, Carlsbad, Calif.), homogenized, and prepared as a single cell suspension for flow cytometric analysis as previously described (Wang […]. Measuring bacterial load and immune responses in mice infected with Listeria monocytogenes. Journal of Visualized Experiments: JoVE 2011). The software Phylogenetic Investigation of Communities by Reconstruction of Unobserved States (PICRUSt) was used to predict the metagenome ([…], Knights […] Thurber R L, Knight R, et al. Predictive functional profiling of microbial communities using 16S rRNA marker gene sequences. Nature Biotechnology 2013; 31:814-21). Sequencing data were prepared as described above, but sequences were then clustered into OTUs using a closed-reference OTU picking protocol at the 97% sequencing identity level [http://qiime.org/scripts/pick_closed_reference_otus.html]. The resulting OTU table was normalized by the expected copy number(s) of the 16s rRNA gene in each OTU. PICRUSt was then used to predict the metagenome [https://picrust.github.io/picrust/tutorials/metagenome_prediction.html#metagenome-prediction-tutorial]. Each sample was rarefied to an even sequencing depth to adjust for uneven sequencing depth prior to further analysis. Differences in the metagenomes among the groups were investigated by visual assessment of clustering on PCA and by analysis of similarity (ANOSIM) calculated on Bray Curtis dissimilarity metric.

[1] = Unclassified, Metabolism, Energy metabolism
[2] = Unclassified, Metabolism, Others

With COc1ccc2c(c1)c(CC(=O)O)c(C)n2C(=O)c1ccc(Cl)cc1 [NSAID, indomethacin] as the compound, how does the “vs. Control Direction” value (Alanine, aspartate and glutamate metabolism) read?
Its value is “↓”.

What about the “vs. Control Direction” value (Amino Acid related enzymes) of the same compound?
The value was “↑”.

And the “vs. Control Direction” value (Carbohydrate Metabolism, Citrate cycle (TCA cycle))?
The value was “↑”.

What about the “vs. Control Direction” value (Cell Motility, Bacterial chemotaxis) of the same compound?
Its value is “↑”.

What about the “vs. Control Direction” value (Cell Motility, Bacterial motility proteins) of the same compound?
The value was “↑”.

And the “vs. Control Direction” value (Cell Motility, Flagellar assembly)?
The value was “↑”.

And the “vs. Control Direction” value (Cellular Processes and Signalling, Sporulation)?
The value was “↑”.

What about the mean % abundance (Cellular Processes, Cell Motility, Bacterial chemotaxis) of the same compound?
The mean % abundance was 1.30%.

What about the mean % abundance (Cellular Processes, Cell Motility, Bacterial motility proteins) of the same compound?
The mean % abundance was 0.81%.

What about the mean % abundance (Cellular Processes, Cell Motility, Flagellar assembly) of the same compound?
Its mean % abundance is 0.91%.

What about the “vs. Control Direction” value (Chaperones and folding catalysts) of the same compound?
The value was “↓”.

What about the “vs. Control Direction” value (Energy Metabolism, Carbon fixation pathways in prokaryotes) of the same compound?
Its value is “↓”.

What about the “vs. Control Direction” value (Energy Metabolism, Oxidative phosphorylation) of the same compound?
Its value is “↑”.

What about the mean % abundance (Environmental Information Processing, Membrane Transport, ABC transporters) of the same compound?
Its mean % abundance is 1.71%.

What about the mean % abundance (Environmental Information Processing, Membrane Transport, Phosphotransferase system (PTS)) of the same compound?
The mean % abundance was 0.18%.

And the mean % abundance (Environmental Information Processing, Membrane Transport, Transporters)?
Its mean % abundance is 3.82%.

What about the mean % abundance (Environmental Information Processing, Signal Transduction, Two-component system) of the same compound?
The mean % abundance was 0.20%.

And the “vs. Control Direction” value (Folate biosynthesis)?
Its value is “↑”.

What about the mean % abundance (Genetic Information Processing, Folding, Sorting and Degradation, Chaperones and folding catalysts) of the same compound?
The mean % abundance was 0.61%.

What about the mean % abundance (Genetic Information Processing, Replication and Repair DNA repair and recombination proteins) of the same compound?
Its mean % abundance is 3.12%.

What about the mean % abundance (Genetic Information Processing, Replication and Repair, DNA replication proteins) of the same compound?
The mean % abundance was 0.50%.

What about the mean % abundance (Genetic Information Processing, Replication and Repair, Homologous recombination) of the same compound?
The mean % abundance was 2.12%.

And the mean % abundance (Genetic Information Processing, Transcription, Transcription factors)?
The mean % abundance was 0.31%.

What about the mean % abundance (Genetic Information Processing, Translation Ribosome Biogenesis) of the same compound?
The mean % abundance was 0.70%.

What about the mean % abundance (Genetic Information Processing, Translation, Ribosome) of the same compound?
Its mean % abundance is 2.94%.

And the “vs. Control Direction” value (Lipopolysaccharide biosynthesis)?
The value was “↑”.

What about the “vs. Control Direction” value (Lipopolysaccharide biosynthesis proteins) of the same compound?
The value was “↑”.

And the “vs. Control Direction” value (Membrane Transport, ABC transporters)?
Its value is “↓”.

And the “vs. Control Direction” value (Membrane Transport, Phosphotransferase system (PTS))?
Its value is “↓”.

What about the “vs. Control Direction” value (Membrane Transport, Transporters) of the same compound?
Its value is “↓”.

What about the “vs. Control Direction” value (Membrane and intracellular structural molecules) of the same compound?
Its value is “↓”.

And the mean % abundance (Metabolism, Amino Acid Metabolism, Alanine, aspartate and glutamate metabolism)?
Its mean % abundance is 1.14%.

What about the mean % abundance (Metabolism, Amino Acid Metabolism, Amino Acid related enzymes) of the same compound?
Its mean % abundance is 1.65%.

What about the mean % abundance (Metabolism, Carbohydrate Metabolism, Citrate cycle (TCA cycle)) of the same compound?
Its mean % abundance is 1.25%.

And the mean % abundance (Metabolism, Energy Metabolism, Carbon fixation pathways in prokaryotes)?
The mean % abundance was 0.40%.

And the mean % abundance (Metabolism, Energy Metabolism, Oxidative phosphorylation)?
The mean % abundance was 1.65%.

What about the mean % abundance (Metabolism, Glycan Biosynthesis and Metabolism, Lipopolysaccharide biosynthesis proteins) of the same compound?
Its mean % abundance is 1.48%.

What about the mean % abundance (Metabolism, Glycan Biosynthesis and Metabolism, Lipopolysaccharide biosynthesis) of the same compound?
Its mean % abundance is 1.55%.

What about the mean % abundance (Metabolism, Glycan Biosynthesis and Metabolism, Other glycan degradation) of the same compound?
Its mean % abundance is 1.27%.

And the mean % abundance (Metabolism, Metabolism of Cofactors and Vitamins, Folate biosynthesis)?
Its mean % abundance is 1.66%.

And the mean % abundance (Metabolism, Metabolism of Cofactors and Vitamins, One carbon pool by folate)?
The mean % abundance was 0.49%.

And the mean % abundance (Metabolism, Metabolism of Cofactors and Vitamins, Porphyrin and chlorophyll metabolism)?
The mean % abundance was 2.42%.

What about the mean % abundance (Metabolism, Nucleotide Metabolism, Purine metabolism) of the same compound?
The mean % abundance was 0.90%.

And the mean % abundance (Metabolism, Nucleotide Metabolism, Pyrimidine metabolism)?
Its mean % abundance is 2.24%.

What about the “vs. Control Direction” value (Nucleotide Metabolism, Purine metabolism) of the same compound?
The value was “↓”.

What about the “vs. Control Direction” value (Nucleotide Metabolism, Pyrimidine metabolism) of the same compound?
The value was “↑”.

What about the “vs. Control Direction” value (One carbon pool by folate) of the same compound?
The value was “↓”.

And the “vs. Control Direction” value (Other glycan degradation)?
The value was “↑”.

What about the “vs. Control Direction” value (Pores ion channels) of the same compound?
The value was “↑”.

And the “vs. Control Direction” value (Porphyrin and chlorophyll metabolism)?
Its value is “↑”.

What about the “vs. Control Direction” value (Replication and Repair DNA repair and recombination proteins) of the same compound?
Its value is “↑”.

And the “vs. Control Direction” value (Replication and Repair, DNA replication proteins)?
Its value is “↓”.

What about the “vs. Control Direction” value (Replication and Repair, Homologous recombination) of the same compound?
The value was “↑”.

And the “vs. Control Direction” value (Signal Transduction, Two-component system)?
Its value is “↓”.

What about the “vs. Control Direction” value (Transcription, Transcription factors) of the same compound?
The value was “↓”.

What about the “vs. Control Direction” value (Translation Ribosome Biogenesis) of the same compound?
Its value is “↓”.

What about the “vs. Control Direction” value (Translation, Ribosome) of the same compound?
Its value is “↑”.

And the mean % abundance (Unclassified, Cellular Processes and Signaling, Pores ion channels)?
Its mean % abundance is 3.54%.

What about the mean % abundance (Unclassified, Cellular Processes and Signalling, Membrane and intracellular structural molecules) of the same compound?
Its mean % abundance is 0.17%.

And the mean % abundance (Unclassified, Cellular Processes and Signalling, Sporulation)?
Its mean % abundance is 1.00%.

What about the “vs. Control Direction” value [1] of the same compound?
Its value is “↑”.

What about the mean % abundance [1] of the same compound?
Its mean % abundance is 1.25%.

What about the “vs. Control Direction” value [2] of the same compound?
The value was “↑”.

And the mean % abundance [2]?
Its mean % abundance is 0.84%.
